Values after ≈ are worked out from the molar mass of the structure shown. Read-outs that look alike come from different tables or passages of the source. Marks after values point to notes of the source that are not given here.
Experiments:
[1] = parameters: method as in PMID 23098238; conditions: cited from earlier work
human keratinocytes = experiment: ROS evaluation (DCF assay), human keratinocytes; type: cell-based; conditions: after ROS induction by DHTTP; surfactant in CMC concentration
Method: (§1) Antioxidative properties of the tested surfactant were evaluated. To induce ROS production, a DPPH solution was prepared (C = 2.55 × 10^−3 mol/dm3). Normal fibroblasts and keratinocytes were seeded on flat bottom 96-well tissue culture plates at a density of 10^4 cells/well and allowed to grow in a CO2 incubator at 37°C overnight. Then, culture medium was removed and 200 µL of DPPH solution in DMEM was added to the plate and left for 1 h in a CO2 incubator at 37 °C. After incubation, DPPH solution was removed and ROS production was determined using DCF assay (Life Technologies, Warsaw, Poland). The DCF assay was conducted with 6-carboxy-2′,7′-dichlorodihydrofluorescein diacetate 2′,7′-dichlorofluorescein (carboxy-H2DCFDA). After deacetylation of H2DCFDA to H2DCF or carboxy-H2DCFDA to carboxy-H2DCF, cellular ROS oxidize H2DCF and carboxy-H2DCF to 2′,7′-dichlorofluorescein (DCF) and 2′,7′-carboxydichlorofluorescein (carboxy-DCF), respectively. The carboxy-H2DCFDA was dissolved in sterile DMSO to generate a stock solution of 50 µg/mL. For experiments, the stock solution of carboxy-H2DCFDA was brought to room temperature in the dark and then diluted in a cell culture medium without FBS. After washout of the incubation medium from cells with PBS, the reagent was added to cell culture to a final concentration of 10 µM and for 30 min was incubated at 37 °C in darkness. After incubation, excitation wavelength of 495 nm and emission wavelength of 530 nm were used by a multiwell scanning spectrophotometer (EnSpire Perkin Elmer, Krakow, Poland). In the next stage, surfactant solutions in CMC concentrations were added into cells after 1 h incubation with DHTTP solution. Cells were incubated, and ROS were detected 30 min by a multiwell scanning spectrophotometer (EnSpire Perkin Elmer, Poland).

[2] = test system: normal human keratinocytes (HaCaT); experiment: MTT cell viability assay, HaCaT; type: cell-based; conditions: Homo sapiens, HaCaT, MTT
Method: (§2) HaCaT (immortalized human keratinocytes from histologically normal skin) cell line was obtained from the CLS Cell Lines Service GmbH (Eppelheim, Germany). HGFs (human gingival fibroblasts) derive from primary cell culture. The cells were isolated according to the procedure described by Saczko et al. and patented by Saczko et al.. Cells were grown in plastic cell culture flasks in Dulbecco’s Modified Eagle’s Medium, supplemented with fetal bovine serum (FBS, Lonza, Morrisville, NC, USA), with 100 IU/mL penicillin, 50 mg streptomycin, and 125 μg amphotericin B (Sigma). The cells were maintained in a humidified atmosphere at 37 °C and 5% CO2. The cells were regularly maintained by systematic passaging. For experimental purposes, the cells were removed by trypsinization (0.25% Trypsin-EDTA, Sigma).
(§3) MTT (Sigma) test was used to determine the viability of HaCaT and HGFs cells. The MTT assay was used to test mitochondrial metabolic functioning. Cells were seeded on flat bottom 96-well tissue culture plates at a density of 10^4 cells/well and allowed to grow in a CO2 incubator at 37 °C overnight. In the case of these studies, the culture medium was removed, surfactant solutions were added, and the cells were exposed for 24 and 48 h to compounds at doses ranging from 50 to 2000 μg/mL. After incubation, MTT assay was applied according to the manufacturer protocol. The absorbance was measured at 570 nm using a multiwell plate reader (EnSpire Multimode Reader, Perkin Elmer). Each experiment was performed in a few independent repetitions. Mean values and standard deviations of all results were calculated. The final results were expressed as the percentage of mitochondrial function relative to untreated control cells.

[3] = MTT cell viability assay, HaCaT; type: cell-based, human; conditions: human, HaCaT cells (immortalized human keratinocytes), evaluated for CMC
Method: as §2, §3

[4] = parameters: method as in PMID 23098238; conditions: cited from earlier work; remark: listed apart in the source
primary fibroblasts = experiment: ROS evaluation (DCF assay), primary fibroblasts; type: cell-based, human; conditions: after ROS induction by DHTTP; surfactant in CMC concentration
Method: as §1

[5] = MTT cell viability assay, HGFs; type: cell-based, human; conditions: human, primary human gingival fibroblasts (HGFs), evaluated for CMC; for viability at 24 h: read-out: Viability 24 h HGF’s; for viability at 48 h: read-out: Viability 48 h HGF’s
Method: as §2, §3

[6] = test system: primary fibroblasts (HGFs); experiment: MTT cell viability assay, HGFs; type: cell-based, human; conditions: Homo sapiens, Fibroblast, MTT
Method: as §2, §3

[7] = DPPH• scavenging kinetics by UV-vis, pseudo-first-order conditions; conditions: for second-order rate constant k2 for the reaction with DPPH•: ethanol, 298 K, deaerated, DPPH• 2.2 × 10^−4 M, surfactant 0.012-0.12 M; for k2 higher in comparison with the CnPDA homolog: reaction with DPPH•
Method: After confirming that the absorption maximum at 517 nm of DPPH• is outside the surfactant’s absorption range, the rate of the DPPH•-scavenging reaction of the N-oxides was measured by monitoring the decrease in absorbance of this maximum. To ensure that the decay of DPPH• obeyed pseudo-first-order kinetics, the concentration of surfactants was at least a 54-fold excess of the DPPH• concentration. As explained in SI, the calculated pseudo-first-order rate constants, kobs, increased linearly with the concentration of Cn(DAPANO)2 and CnPDA (shown in SI). The second-order rate constants k2 for the reaction between the N-oxides and DPPH• were determined from the slopes of the linear plots of kobs vs. the concentration of the surfactants and are given in Figure 6.
The measurements were done under deaerated conditions at 298 K in ethanol solutions (2 mL in a 10 mm quartz cuvette) containing DPPH^• (C = 2.2 × 10^−4 M) and a surfactant at each of five different concentrations, namely C1 = 0.12 M, C2 = 0.09 M, C3 = 0.06 M, C4 = 0.03 M, and C5 = 0.012 M. UV−vis spectral changes associated with the undergoing reaction were monitored at 516 nm, using a Varian Cary 50Conc UV−visible Spectrophotometer. The following equations of the calibration curve were used to calculate DPPH^• concentrations in the reaction system: Abs = 4.0189 × C[mM] + 0.00813 (R^2 = 0.9998). The rate of DPPH^• scavenging reaction was determined using pseudo-first-order kinetics (the concentration of CnPDA or Cn(DAPANO)2 was maintained at more than 54-fold excess of the radical concentration); further details are given as Supporting Information.

[8] = Hydrodynamic radius of micelles by dynamic light scattering (DLS); type: physicochemical; conditions: 298 K, surfactant at 100 x CMC
Method: The hydrodynamic diameter for CnPDA was determined by the DLS method. The measurements were performed using a Nano Series Zetasizer from Malvern Instruments (UK) with a detection angle of 173°, equipped with a He−Ne laser (632.8 nm) and an ALV 5000 multibit multitau autocorrelator. Before the measurements, the samples were filtered through a filter (with a pore size of 0.2 μm) directly into the optical cell to remove any impurities. All of the DLS measurements were performed at 298 ± 0.1 K and at a surfactant concentration a hundred times higher than the critical micelle concentration (CMC). Each value was obtained as the average of three runs with at least 10 measurements. The DTS software (Nano) was used to evaluate the data.

[9] = Radical scavenging monitored by EPR spectroscopy, GO•; conditions: after 60 min of reaction; C/CMC = 100
Method: (§4) We began with an attempt to determine if the N-oxide surfactants can participate in the radical scavenging process when micelles are well-formed. Thus, the reaction mixtures containing a surfactant at C/CMC = 100, which is a typical concentration found in formulations, and GO• or DPPH• at 2 mM were prepared along with the control samples and monitored over time (solutions of DPPH• and GO• without surfactants).
(§5) The scavenging capacity of the surfactants was judged quantitatively by measuring the percentage of remaining GO• and DPPH• after a fixed reaction time. The relative concentration of GO• and DPPH• was calculated from Equation (1):(1) remaining radical%=It/I0×100% where I0 and It correspond to the EPR signal integral intensity of a radical in the absence and presence of the N-oxide surfactants after a fixed time, respectively.
(§6) The antiradical properties were studied by EPR using a Bruker ELEXYS E500 spectrometer equipped with an NMR gaussmeter and frequency counter. A microwave power of 10 mW, a modulation frequency of 100 kHz, a modulation amplitude of 1 G, a time constant of 82 ms, and a conversion time of 164 ms were adopted. The antiradical properties were evaluated against two model radicals: 2,2-diphenyl-1-picrylhydrazyl (DPPH•) and galvinoxyl (GO•). […]

[10] = Radical scavenging monitored by EPR spectroscopy, DPPH•; conditions: after 60 min of reaction; C/CMC = 100
Method: as §4, §5, §6

[11] = 24 h incubation, read-out: IC50 HaCaT 24 h
[12] = 48 h incubation, read-out: IC50 HaCaT 48 h
[13] = 24 h incubation, read-out: IC50 HGFs 24 h
[14] = 48 h incubation, read-out: IC50 HGFs 48 h

| RH DLS [8] [nm] | Structure (SMILES) | RH DLS [1] | radical (ROS) level, DCF fluorescence (human keratinocytes) | IC50 [2, 11] [µg/mL] | IC50 [2, 12] [µg/mL] | viability at 24 h [3] [%] | viability at 48 h [3] [%] | CMC [4] | radical (ROS) level, DCF fluorescence (primary fibroblasts) | viability at 24 h [5] [%] | viability at 48 h [5] [%] | IC50 [6, 13] [µg/mL] | IC50 [6, 14] [µg/mL] | second-order rate constant k2 for the reaction with DPPH• [7] [M⁻¹ s⁻¹] | k2 higher in comparison with the CnPDA homolog [7] [%] | reduced the number of GO• by [9] [%] | reduced the number of DPPH• by [10] [%] |
| --- | --- | --- | --- | --- | --- | --- | --- | --- | --- | --- | --- | --- | --- | --- | --- | --- | --- |
| – | CCCCCCCCCCCCCCCC(=O)N(CCC[N+](C)(C)[O-])CCC[N+](C)(C)[O-] [C16(DAPANO)2] | 2.38 ^a nm | not significant decrease in radical level | 29 (≈ 63.4 µM) | 18.2 (≈ 39.8 µM) | 14.7 | 3.9 | 1.5·10^−4 a M | not significant decrease in radical level | 27.8 | 12.3 | 14.3 (≈ 31.2 µM) | 0.76 (≈ 1.66 µM) | 0.00138 | 10 | – | – |
| 1.67 | CCCCCCCCCC(=O)NCCC[N+](C)(C)[O-] [C10PDA] | – | – | 43.8 (≈ 161 µM) | 41.5 (≈ 152 µM) | 34.7 | 84.8 | – | – | 98.6 | 20.2 | 77.9 (≈ 286 µM) | 38.7 (≈ 142 µM) | 0.000853 | – | – | – |
| 2.19 | CCCCCCCCCCCCCC(=O)NCCC[N+](C)(C)[O-] [C14PDA] | – | most significant decrease of fluorescence level | 48.1 (≈ 146 µM) | 9.9 (≈ 30.1 µM) | 81.1 | 119 | – | most significant decrease of fluorescence level | 104 | 78.2 | 69.9 (≈ 213 µM) | 1.6 (≈ 4.87 µM) | 0.00101 | – | – | – |
| 2.27 | CCCCCCCCCCCCCCCC(=O)NCCC[N+](C)(C)[O-] [C16PDA] | – | – | 48.1 (≈ 135 µM) | 9.8 (≈ 27.5 µM) | 140 | 123 | – | – | 96.9 | 81.7 | 44.1 (≈ 124 µM) | 1.9 (≈ 5.33 µM) | 0.00125 | – | – | – |
| – | CCCCCCCCCCCCCC(=O)N(CCC[N+](C)(C)[O-])CCC[N+](C)(C)[O-] [C14(DAPANO)2] | 2.28 ^a nm | not significant decrease in radical level | 32 (≈ 74.5 µM) | 17 (≈ 39.6 µM) | 11.3 | 4.5 | 8.0·10^−4 a M | not significant decrease in radical level | 17.7 | 11.5 | 68.5 (≈ 159 µM) | 0.89 (≈ 2.07 µM) | 0.00117 | 16 | – | – |
| 1.96 | CCCCCCCCCCCC(=O)NCCC[N+](C)(C)[O-] [C12PDA] | – | – | 31 (≈ 103 µM) | 18.8 (≈ 62.6 µM) | 89.4 | 116 | – | – | 55.5 | 44.8 | 51.9 (≈ 173 µM) | 49.8 (≈ 166 µM) | 0.000905 | – | 59 | 24 |
| – | CCCCCCCCCC(=O)N(CCC[N+](C)(C)[O-])CCC[N+](C)(C)[O-] [C10(DAPANO)2] | 1.75 ^a nm | – | 98 (≈ 262 µM) | 97 (≈ 260 µM) | 8.1 | 18.2 | 3.0·10^−2 a M | – | 16.2 | 9.7 | 34.5 (≈ 92.3 µM) | 1.9 (≈ 5.09 µM) | 0.000947 | 11 | – | – |

Source: PMC8346996, “Antiradical Properties of N-Oxide Surfactants—Two in One” (International Journal of Molecular Sciences, 2021)
